Values of other authors, collected in US20030232858A1, “Use of hydroxyeicosatetraenoic acid compounds to treat dry mouth” (priority 2002, published 2003).

How the values were obtained:
[1] = tested on: colitis
[2] = tested on: leukotriene B4
[3] = tested on: psoriatic skin lesions

Structure (SMILES): CCCCC[C@H](O)/C=C/C=C\C/C=C\C/C=C\CCCC(=O)O [15-HETE, 15-Hydroxyeicosatetraenoic acid]
- anti-inflammatory properties in colitis [1]: minor anti-inflammatory properties
- effects on leukotriene B4 production or its activity [2]: inhibitory effects
- effect on psoriasis ([3]; injected into psoriatic skin lesions): can improve psoriasis
- concentration required to cause a clinical effect ([3]; intralesional injection, 0.1 ml): 10 µmol/L
- amount required to cause a clinical effect ([3]; intralesional injection, 0.1 ml of 10 μmol/L): 300 ng
